# Measurements published in PubChem BioAssay (NCI).
#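 Each compound was tested at five concentrations against cells in 96-well plates for 48 hours. The concentration for 50% growth inhibition is given as GI50. Definition used: TGI = concentration required for complete inhibition of growth.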
# Legend:
# Test in all cases: NCI tumour cell line growth inhibition, 48 h
# 786-0 renal = test system: 786-0 renal
# A498 renal = test system: A498 renal
# A549 NSCLC = test system: A549 NSCLC
# ACHN renal = test system: ACHN renal
# BT-549 breast = test system: BT-549 breast
# CAKI-1 renal = test system: CAKI-1 renal
# CCRF-CEM leukemia = test system: CCRF-CEM leukemia
# COLO 205 colon = test system: COLO 205 colon
# DU-145 prostate = test system: DU-145 prostate
# EKVX NSCLC = test system: EKVX NSCLC
# HCC-2998 colon = test system: HCC-2998 colon
# HCT-116 colon = test system: HCT-116 colon
# HCT-15 colon = test system: HCT-15 colon
# HL-60(TB) leukemia = test system: HL-60(TB) leukemia
# HOP-62 NSCLC = test system: HOP-62 NSCLC
# HOP-92 NSCLC = test system: HOP-92 NSCLC
# HS 578T breast = test system: HS 578T breast
# HT29 colon = test system: HT29 colon
# IGROV1 ovarian = test system: IGROV1 ovarian
# K-562 leukemia = test system: K-562 leukemia
# KM12 colon = test system: KM12 colon
# LOX IMVI melanoma = test system: LOX IMVI melanoma
# M14 melanoma = test system: M14 melanoma
# MALME-3M melanoma = test system: MALME-3M melanoma
# MCF7 breast = test system: MCF7 breast
# MDA-MB-231 breast = test system: MDA-MB-231 breast
# MDA-MB-435 = test system: MDA-MB-435
# MOLT-4 leukemia = test system: MOLT-4 leukemia
# NCI-H226 lung = test system: NCI-H226 lung
structure (smiles),measurement,setting,value
COc1ccc(/C=N/C2=C(C#N)C(c3ccccc3)c3c(ccc4ccccc34)O2)cc1 (stereo not drawn),GI50,786-0 renal,4.48 µM
same,TGI,786-0 renal,38.7 µM
same,GI50,A498 renal,0.594 µM
same,TGI,A498 renal,6.18 µM
same,GI50,A549 NSCLC,1.99 µM
same,TGI,A549 NSCLC,> 100 µM
same,GI50,ACHN renal,4.09 µM
same,TGI,ACHN renal,54.4 µM
same,GI50,BT-549 breast,1.17 µM
same,TGI,BT-549 breast,20.9 µM
same,GI50,CAKI-1 renal,0.457 µM
same,TGI,CAKI-1 renal,20.4 µM
same,GI50,CCRF-CEM leukemia,0.751 µM
same,TGI,CCRF-CEM leukemia,> 100 µM
same,GI50,COLO 205 colon,2.36 µM
same,TGI,COLO 205 colon,21.2 µM
same,GI50,DU-145 prostate,3.26 µM
same,TGI,DU-145 prostate,18.6 µM
same,GI50,EKVX NSCLC,5.02 µM
same,TGI,EKVX NSCLC,> 100 µM
same,GI50,HCC-2998 colon,3.81 µM
same,TGI,HCC-2998 colon,31.5 µM
same,GI50,HCT-116 colon,0.516 µM
same,TGI,HCT-116 colon,19.2 µM
same,GI50,HCT-15 colon,0.564 µM
same,TGI,HCT-15 colon,29 µM
same,GI50,HL-60(TB) leukemia,0.649 µM
same,TGI,HL-60(TB) leukemia,6 µM
same,GI50,HOP-62 NSCLC,1.77 µM
same,TGI,HOP-62 NSCLC,60.1 µM
same,GI50,HOP-92 NSCLC,1.16 µM
same,TGI,HOP-92 NSCLC,18.2 µM
same,GI50,HS 578T breast,2.15 µM
same,TGI,HS 578T breast,23.8 µM
same,GI50,HT29 colon,0.702 µM
same,TGI,HT29 colon,15.3 µM
same,GI50,IGROV1 ovarian,0.57 µM
same,TGI,IGROV1 ovarian,39.3 µM
same,GI50,K-562 leukemia,0.37 µM
same,TGI,K-562 leukemia,> 100 µM
same,GI50,KM12 colon,1.16 µM
same,TGI,KM12 colon,35.4 µM
same,GI50,LOX IMVI melanoma,2.01 µM
same,TGI,LOX IMVI melanoma,22.8 µM
same,GI50,M14 melanoma,0.459 µM
same,TGI,M14 melanoma,9.66 µM
same,GI50,MALME-3M melanoma,0.649 µM
same,TGI,MALME-3M melanoma,40.4 µM
same,GI50,MCF7 breast,0.586 µM
same,TGI,MCF7 breast,24.5 µM
same,GI50,MDA-MB-231 breast,2.5 µM
same,TGI,MDA-MB-231 breast,22.8 µM
same,GI50,MDA-MB-435,0.273 µM
same,TGI,MDA-MB-435,0.834 µM
same,GI50,MOLT-4 leukemia,1.75 µM
same,TGI,MOLT-4 leukemia,> 100 µM
same,GI50,NCI-H226 lung,2.17 µM
same,TGI,NCI-H226 lung,54.8 µM
